From patent US10245252B2, “Use of alkylamidothiazoles in cosmetic or dermatological preparations for the prophylaxis or treatment of sensitive skin” (BEIERSDORF AG, priority 2013, dated 2019)

Tests used:
Format in all cases: cell-based
blood leukocytes = assay: release of interleukin 1β from blood leukocytes following stimulation by LPS; conditions: FIG. 3
Experimental: (§1) In further experiments it was investigated whether the inhibition of the NFκB activation also actually reduces the subsequent secretion of pro-inflammatory mediators. By way of example, the results of two experiments are documented in the figures. By incubation of human dermal fibroblasts with lipopolysaccharides (LPS), the formation of the pro-inflammatory prostaglandin E2 was induced in the cells, and a specific ELISA was used to determine the concentration in the cell culture supernatant, following incubation for 24 hours with LPS and increasing concentrations of the substances according to the invention. […] In the next experiment, the release of interleukin 1β (IL-1β) from blood leukocytes following stimulation by LPS and simultaneous incubation (for 24 hours) with the substances according to the invention was measured. […] The anti-inflammatory activity level of the alkylamidothiazoles is thus that of recognized pharmacological standards, although higher concentrations of the substances according to the invention do have to be used.

human dermal fibroblasts = assay: LPS-induced prostaglandin E2 formation in human dermal fibroblasts, ELISA of cell culture supernatant; conditions: incubation for 24 hours with LPS and increasing concentrations, FIG. 2, compared with diclofenac
Experimental: as §1

NFκB = NFκB activity assay (commercial assay from Cell Culture Service GmbH), NFκB activated by TNF-alpha; conditions: NFκB activated by adding TNF-alpha; FIG. 1; very low concentrations
Source text: The nuclear factor kappa B (NFκB) is a master regulator of inflammation. The expression of many pro-inflammatory mediators (e.g. cytokines and chemokines) is controlled by NFκB. The inhibition of the activation of NFκB is therefore an important mechanism for minimizing inflammation processes. To measure the NFκB activity, a commercial assay from Cell Culture Service GmbH, Hamburg, was used. In this test, NFκB is activated by adding the pro-inflammatory mediator TNF-alpha. The addition of the alkylamidothiazoles according to the invention prevents the TNF-alpha effect in a dose-dependent manner.

With `CC(C)C(=O)Nc1nc(-c2ccc(O)cc2O)cs1` [N-(4-(2,4-dihydroxyphenyl)thiazol-2-yl)isobutyramide] the “release of interleukin 1β (IL-1β)” value (blood leukocytes; LPS stimulation and simultaneous incubation for 24 hours) was “very good anti-inflammatory effectiveness”, the “release of interleukin 1β (IL-1β), effectiveness relative to dexamethasone” value (blood leukocytes; concentration of 16.67 μM, LPS, 24 hours) was “an effectiveness as for 500 ng of dexamethasone” and the “release of PGE2” value (human dermal fibroblasts) was “very significantly reduces the release of PGE2 to a level which is comparable to the pharmacological standard diclofenac”. For the same compound, the “inhibition of the TNF-alpha-induced activation of NFκB” value (NFκB) was “prevent the TNF-alpha-induced activation of NFκB”.
